What all share (assay type): binding
Test [1] addresses T1, HeLa cell extract proteins (Homo sapiens, UniProt Q96DG6).
T1 construct: endogenous in cells; host or cells: HeLa cell extract
T1 sequence (Q96DG6 1-245): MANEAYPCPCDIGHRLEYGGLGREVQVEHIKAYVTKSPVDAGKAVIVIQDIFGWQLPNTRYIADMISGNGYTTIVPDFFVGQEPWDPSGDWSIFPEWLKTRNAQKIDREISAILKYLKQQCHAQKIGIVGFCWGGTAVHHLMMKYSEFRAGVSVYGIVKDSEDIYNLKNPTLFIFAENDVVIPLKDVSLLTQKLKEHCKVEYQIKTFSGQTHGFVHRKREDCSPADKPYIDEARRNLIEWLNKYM

Test [2] deals with T2, HeLa cell extract proteins (Homo sapiens, UniProt P16070).
T2 construct: endogenous in cells; host or cells: HeLa cell extract
T2 sequence (P16070 21-742): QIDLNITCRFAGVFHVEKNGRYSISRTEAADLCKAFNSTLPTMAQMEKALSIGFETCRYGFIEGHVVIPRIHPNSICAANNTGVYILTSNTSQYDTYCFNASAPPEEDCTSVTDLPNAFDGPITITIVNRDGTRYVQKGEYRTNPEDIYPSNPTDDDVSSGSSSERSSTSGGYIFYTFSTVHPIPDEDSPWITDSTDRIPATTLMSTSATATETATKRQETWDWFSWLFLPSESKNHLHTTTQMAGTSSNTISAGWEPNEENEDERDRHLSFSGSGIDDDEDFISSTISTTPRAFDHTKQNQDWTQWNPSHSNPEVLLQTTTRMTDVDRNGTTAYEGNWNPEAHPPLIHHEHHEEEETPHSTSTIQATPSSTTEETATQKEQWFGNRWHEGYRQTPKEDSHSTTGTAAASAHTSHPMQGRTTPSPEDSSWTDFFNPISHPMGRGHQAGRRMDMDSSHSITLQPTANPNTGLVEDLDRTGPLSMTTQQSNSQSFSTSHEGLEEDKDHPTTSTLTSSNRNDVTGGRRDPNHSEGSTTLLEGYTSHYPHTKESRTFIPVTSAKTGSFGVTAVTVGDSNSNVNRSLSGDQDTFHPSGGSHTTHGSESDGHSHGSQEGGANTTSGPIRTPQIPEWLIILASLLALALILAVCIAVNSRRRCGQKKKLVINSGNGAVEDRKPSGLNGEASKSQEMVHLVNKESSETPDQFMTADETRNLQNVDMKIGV

Test [3] deals with T3, HeLa cell extract proteins (Homo sapiens, UniProt P13639).
T3 construct: endogenous in cells; host or cells: HeLa cell extract

For test [4], the target named is T4, HeLa cell extract proteins (Homo sapiens, UniProt P53396).
T4 construct: endogenous in cells; host or cells: HeLa cell extract
T4 sequence (P53396 1-1101): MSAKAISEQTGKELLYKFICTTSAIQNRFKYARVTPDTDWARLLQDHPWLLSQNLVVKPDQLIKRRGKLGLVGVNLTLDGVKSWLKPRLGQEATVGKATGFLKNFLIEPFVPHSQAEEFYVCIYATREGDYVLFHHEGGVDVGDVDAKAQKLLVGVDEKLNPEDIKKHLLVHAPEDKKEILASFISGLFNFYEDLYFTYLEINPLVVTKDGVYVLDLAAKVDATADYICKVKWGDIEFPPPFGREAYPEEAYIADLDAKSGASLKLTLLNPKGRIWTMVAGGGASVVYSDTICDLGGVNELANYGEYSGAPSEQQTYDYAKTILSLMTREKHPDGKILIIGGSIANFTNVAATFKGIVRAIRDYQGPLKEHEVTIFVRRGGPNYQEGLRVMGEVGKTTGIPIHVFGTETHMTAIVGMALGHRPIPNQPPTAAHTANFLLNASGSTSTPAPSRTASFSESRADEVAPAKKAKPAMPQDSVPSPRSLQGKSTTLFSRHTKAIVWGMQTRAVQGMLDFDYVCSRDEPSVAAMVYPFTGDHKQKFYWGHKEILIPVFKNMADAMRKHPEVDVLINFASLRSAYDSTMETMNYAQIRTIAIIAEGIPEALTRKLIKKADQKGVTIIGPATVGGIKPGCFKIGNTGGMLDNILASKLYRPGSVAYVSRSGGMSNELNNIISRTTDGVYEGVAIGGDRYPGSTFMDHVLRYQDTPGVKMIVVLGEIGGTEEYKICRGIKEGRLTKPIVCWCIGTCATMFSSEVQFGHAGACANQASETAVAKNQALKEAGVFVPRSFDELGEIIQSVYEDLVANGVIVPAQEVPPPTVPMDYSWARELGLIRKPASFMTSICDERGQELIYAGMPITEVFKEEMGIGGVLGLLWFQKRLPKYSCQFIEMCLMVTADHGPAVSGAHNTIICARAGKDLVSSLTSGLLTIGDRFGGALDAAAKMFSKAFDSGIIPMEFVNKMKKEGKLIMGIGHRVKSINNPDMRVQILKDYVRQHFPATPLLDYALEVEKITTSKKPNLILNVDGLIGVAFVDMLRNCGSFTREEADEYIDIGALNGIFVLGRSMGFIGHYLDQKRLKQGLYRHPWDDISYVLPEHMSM

Test [5] addresses T5, HeLa cell extract proteins (Homo sapiens, UniProt P62258).
T5 construct: endogenous in cells; host or cells: HeLa cell extract
T5 sequence (P62258 1-255): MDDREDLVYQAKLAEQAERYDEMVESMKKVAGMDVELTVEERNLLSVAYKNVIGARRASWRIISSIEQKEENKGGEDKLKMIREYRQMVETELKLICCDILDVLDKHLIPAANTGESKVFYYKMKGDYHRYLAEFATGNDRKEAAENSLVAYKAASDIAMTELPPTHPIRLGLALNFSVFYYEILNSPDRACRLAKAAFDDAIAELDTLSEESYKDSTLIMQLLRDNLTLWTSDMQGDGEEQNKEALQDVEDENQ

Test [6] deals with T6, HeLa cell extract proteins (Homo sapiens, UniProt Q9HBL8).
T6 construct: endogenous in cells; host or cells: HeLa cell extract
T6 sequence (Q9HBL8 whole entry): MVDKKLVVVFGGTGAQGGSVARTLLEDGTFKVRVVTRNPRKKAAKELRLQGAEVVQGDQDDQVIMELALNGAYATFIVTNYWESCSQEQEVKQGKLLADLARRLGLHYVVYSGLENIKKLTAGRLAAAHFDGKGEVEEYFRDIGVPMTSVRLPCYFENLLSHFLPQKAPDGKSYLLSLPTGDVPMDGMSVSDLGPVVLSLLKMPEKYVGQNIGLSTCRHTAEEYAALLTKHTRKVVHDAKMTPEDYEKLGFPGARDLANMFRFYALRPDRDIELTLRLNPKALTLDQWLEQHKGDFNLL

Test [7] has as its target T7, HeLa cell extract proteins (Homo sapiens, UniProt Q7Z4G4).
T7 construct: endogenous in cells; host or cells: HeLa cell extract
T7 sequence (Q7Z4G4 1-463): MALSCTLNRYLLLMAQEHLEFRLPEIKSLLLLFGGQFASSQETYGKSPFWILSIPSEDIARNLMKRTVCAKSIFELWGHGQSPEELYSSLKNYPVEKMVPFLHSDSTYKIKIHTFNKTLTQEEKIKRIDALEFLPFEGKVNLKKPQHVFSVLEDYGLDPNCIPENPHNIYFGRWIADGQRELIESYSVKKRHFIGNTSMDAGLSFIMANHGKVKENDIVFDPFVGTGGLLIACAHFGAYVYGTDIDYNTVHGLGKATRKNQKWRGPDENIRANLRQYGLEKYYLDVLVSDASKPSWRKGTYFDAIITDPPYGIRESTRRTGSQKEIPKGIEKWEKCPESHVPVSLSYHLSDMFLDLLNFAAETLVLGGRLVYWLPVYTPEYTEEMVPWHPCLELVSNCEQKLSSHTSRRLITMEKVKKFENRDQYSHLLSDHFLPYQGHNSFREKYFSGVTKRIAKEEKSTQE

[8] abbreviates: HeLa, protein EEF2 (ELONGATION FACTOR 2.).

Where two headings read alike, the source gives them in different places.

In the case of `CCCCCCOc1cccc(Cc2cnc(N)nc2N)c1` [compound 2], the “fold changes relative to vehicle control” value in test [1] (protein CMBL, HeLa) was found to be 1.38; in test [2] (protein CD44, HeLa), 1.42; in test [3] (setting [8]), 2.22 fold; in test [4] (protein ACLY, HeLa), 1.99; in test [5] (protein YWHAE, HeLa), 2; in test [6] (captured protein NMRAL1, HeLa) it was 1.05. Besides, the “fold changes relative to vehicle control” value in test [7] (HeLa, protein TRMT11) was determined as 1.19.

With `NCCOCCOCC(=O)Nc1nc2ncc(CNc3ccc(C(=O)NC(CCC(=O)O)C(=O)O)cc3)nc2c(=O)[nH]1` (stereo not shown) [compound 6], the “fold changes relative to vehicle control” value in test [1] (HeLa, protein CMBL) turned out to be 1.03; in test [2] (protein CD44, HeLa), 1.3; in test [3] (HeLa, protein EEF2), 1.35; in test [4] (HeLa, protein ACLY) it was 1.19; in test [5] (HeLa, protein YWHAE) it was 1.17; in test [6] (protein NMRAL1, HeLa) it was 0.62. Further, the “fold changes relative to vehicle control” value in test [7] (HeLa, captured protein TRMT11) is 0.86.

For `CCCCCCOc1ccc(Cc2cnc(N)nc2N)cc1` [compound 1], the “fold changes relative to vehicle control” value in test [1] (protein CMBL, HeLa) is 1.08; in test [2] (protein CD44, HeLa), 1.08; in test [3] (setting [8]), 1.33 fold; in test [4] (protein ACLY, HeLa), 1.25; in test [5] (protein YWHAE, HeLa) it was 1.37; in test [6] (captured protein NMRAL1, HeLa) it was 0.54. Also, in test [7] (HeLa, protein TRMT11), the “fold changes relative to vehicle control” value was 1.13.

`Nc1nc2c(c(=O)[nH]1)N(C=O)C(CNc1ccc(C(=O)N[C@@H](CCC(=O)O)C(=O)O)cc1)CN2` (stereo partly shown) [LEU, leucovorin]: the “fold changes relative to vehicle control” value in test [1] (HeLa, protein CMBL) is listed as 1.04; in test [2] (protein CD44, HeLa), 1.08; in test [3] (HeLa, protein EEF2), 1.06; in test [4] (HeLa, protein ACLY) it was 1.04; in test [5] (HeLa, protein YWHAE), 1.01; in test [6] (protein NMRAL1, HeLa) it was 1.01. Also, the “fold changes relative to vehicle control” value in test [7] (HeLa, captured protein TRMT11) came to 1.15.

For `NCCCNc1ccc(C(=O)NC(CCC(=O)O)C(=O)O)cc1` (stereo not shown) [compound 7], the “fold changes relative to vehicle control” value in test [1] (HeLa, protein CMBL) is recorded as 1.25; in test [2] (protein CD44, HeLa), 1.06; in test [3] (HeLa, protein EEF2) it was 1.04; in test [4] (HeLa, protein ACLY), 1.04; in test [5] (HeLa, protein YWHAE) it was 1.03; in test [6] (protein NMRAL1, HeLa), 1.03. In addition, the “fold changes relative to vehicle control” value in test [7] (HeLa, captured protein TRMT11) was 1.07.

For `Nc1nc2[nH]cc(CCc3ccc(C(=O)N[C@@H](CCC(=O)O)C(=O)O)cc3)c2c(=O)[nH]1` [PTX, pemetrexed], the “fold changes relative to vehicle control” value is 0.97 in test [1]; 1.04 in test [2]; 1.2 in test [3]; 1.1 in test [4]; 1.1 in test [5]; 0.89 in test [6]. Further, the “fold changes relative to vehicle control” value in test [7] is 0.85.

`Nc1nc2cccc(-c3ccccc3)c2n1Cc1ccc(Cl)c(Cl)c1` [compound 3]: the “fold changes relative to vehicle control” value is recorded as 1.17 in test [1] (protein CMBL, HeLa); 1.49 in test [2] (protein CD44, HeLa); 0.97 fold in test [3] (HeLa, protein EEF2 ([…] 2.)); 1.2 in test [4] (protein ACLY, HeLa); 1.03 in test [5] (protein YWHAE, HeLa); 0.95 in test [6] (captured protein NMRAL1, HeLa). In test [7] (HeLa, protein TRMT11), the “fold changes relative to vehicle control” value came out at 0.96.

Values taken from paper PMC6199744, “Development of Chemical Proteomics for the Folateome and Analysis of the Kinetoplastid Folateome” (ACS Infectious Diseases, 2018).
